Legend:
[1] = test system: P. falciparum male gametocytes; test: P. falciparum Dual Gamete Formation Assay (PfDGFA), male readout (exflagellation); assay type: cell-based, Plasmodium falciparum NF54; conditions: for % inhibition male (individual replicates) R1: replicate R1; for % inhibition male (individual replicates) R3: replicate R3; for % inhibition male (individual replicates) R4: replicate R4; for Average inhibition male (%): average of replicates; for Activity: hit = >50% inhibition in male or female readout in at least 3 replicates, 0 = no class assigned
Procedure, shortened: (§1)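 NF54 mature gametocytes (d14), cpd 24 h 37°C hypoxic gas; trigger: xanthurenic acid ookinete medium + Cy3 anti-Pfs25, 4°C 4 min → 28°C 4 min. Male: exflagellation centres, brightfield x6. Female: Pfs25+ gametes, fluorescence, +24 h 28°C dark.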

[2] = test system: P. falciparum female gametocytes; test: P. falciparum Dual Gamete Formation Assay (PfDGFA), female readout (Pfs25-positive female gametes); assay type: cell-based, Plasmodium falciparum NF54; conditions: for % inhibition female (individual replicates) R1: replicate R1; for % inhibition female (individual replicates) R3: replicate R3; for % inhibition female (individual replicates) R4: replicate R4; for Average inhibition female (%): average of replicates
Procedure, shortened: as §1

[3] = PfDGFA at 2µM, 24h preincubation with gametocytes prior to induction of gametogenesis
[4] = PfDGFA at 2µM, 24h preincubation
[5] = 2µM, 24h preincubation with gametocytes prior to induction of gametogenesis
[6] = 2µM, 24h preincubation, hits selected on >50% inhibition in the male readout across replicates
[7] = 2µM, 24h preincubation, hits selected on >50% inhibition in the female readout across replicates
[8] = 2µM, 24h preincubation, number of replicates with >50% inhibition in the male readout
[9] = 2µM, 24h preincubation, number of replicates with >50% inhibition in the female readout
[10] = PfDGFA at 2µM, 24h preincubation with gametocytes
[11] = number of replicates with >50% inhibition in the male readout, 2µM
[12] = number of replicates with >50% inhibition in the female readout, 2µM

CCCC(C)NC(=O)[C@H]1CNCCN1C(=O)CCCc1ccccc1.O=C(O)C(F)(F)F (some centres unmarked) [TCMDC-141270]
% inhibition male (individual replicates) R1 [1, 3]: -7.3%
% inhibition male (individual replicates) R3 [1, 3]: -0.8%
% inhibition male (individual replicates) R4 [1, 3]: 2.9%
Average inhibition male (%) [1, 4]: -3.3%
% inhibition female (individual replicates) R1 [2, 3]: 8.3%
% inhibition female (individual replicates) R3 [2, 3]: -18.4%
% inhibition female (individual replicates) R4 [2, 3]: -2.2%
Average inhibition female (%) [2, 4]: 0.7%

ON=C1CCc2cc(-c3cc(-c4ccc(OC5CCNCC5)cc4)oc3-c3ccncc3)ccc21 [TCMDC-141381]
% inhibition male (individual replicates) R1 [1, 3]: 12.4%
% inhibition male (individual replicates) R3 [1, 3]: 2.8%
% inhibition male (individual replicates) R4 [1, 3]: 13.5%
Average inhibition male (%) [1, 4]: 7.3%
% inhibition female (individual replicates) R1 [2, 3]: 10.4%
% inhibition female (individual replicates) R3 [2, 3]: -25.1%
% inhibition female (individual replicates) R4 [2, 3]: 18.2%
Average inhibition female (%) [2, 4]: 2.6%

CN(C)CCN(Cc1ccc(-c2ccc(CNCCc3ccccc3)cc2)nc1)C(=O)CCC1CCCC1.O=C(O)C(F)(F)F [TCMDC-141402]
Average inhibition male (%) [1, 5]: 46.5%
% inhibition male (individual replicates) R1 [1, 5]: 41.7%
% inhibition male (individual replicates) R3 [1, 5]: 6.4%
% inhibition male (individual replicates) R4 [1, 5]: 71.6%
HitlevelM [1, 6]: 2
Activity [1, 4]: 0
Average inhibition female (%) [2, 5]: 13.9%
% inhibition female (individual replicates) R1 [2, 5]: 22.3%
% inhibition female (individual replicates) R3 [2, 5]: 7.4%
% inhibition female (individual replicates) R4 [2, 5]: 7.2%
HitlevelF [2, 7]: 0

O=C(C1CC1c1ccccc1)N(Cc1ccc(-c2ccc(CNCCc3ccccc3)cc2)cc1)C1CCNCC1.O=C(O)C(F)(F)F (centres unmarked) [TCMDC-141443]
Average inhibition male (%) [1, 5]: 40.0%
% inhibition male (individual replicates) R1 [1, 5]: 61.6%
% inhibition male (individual replicates) R3 [1, 5]: 28.4%
% inhibition male (individual replicates) R4 [1, 5]: 57.9%
HitlevelM [1, 8]: 2
Average inhibition female (%) [2, 5]: 24.9%
% inhibition female (individual replicates) R1 [2, 5]: 19.9%
% inhibition female (individual replicates) R3 [2, 5]: 29.6%
% inhibition female (individual replicates) R4 [2, 5]: 18.3%
HitlevelF [2, 9]: 0

O=C(CCC1CCCC1)N(Cc1ccc(-c2ccc(CNCCc3ccccc3)cc2)cc1)C1CCCNC1.O=C(O)C(F)(F)F (centres unmarked) [TCMDC-141444]
Average inhibition male (%) [1, 10]: 71.0%
% inhibition male (individual replicates) R1 [1, 10]: 62.4%
% inhibition male (individual replicates) R3 [1, 10]: 42.1%
% inhibition male (individual replicates) R4 [1, 10]: 88.2%
HitlevelM [1, 11]: 3
Average inhibition female (%) [2, 10]: 21.8%
% inhibition female (individual replicates) R1 [2, 10]: 31.1%
% inhibition female (individual replicates) R3 [2, 10]: 20.3%
% inhibition female (individual replicates) R4 [2, 10]: 22.2%
HitlevelF [2, 12]: 0

CC(C)CC(=O)N(Cc1ccc(-c2ccc(CNC3Cc4ccccc4C3)cc2)cc1)C1CCNCC1.O=C(O)C(F)(F)F [TCMDC-141449]
Average inhibition male (%) [1, 5]: 48.3%
% inhibition male (individual replicates) R1 [1, 5]: 49.9%
% inhibition male (individual replicates) R3 [1, 5]: 28.4%
% inhibition male (individual replicates) R4 [1, 5]: 64.9%
HitlevelM [1, 8]: 2
Average inhibition female (%) [2, 5]: 21.5%
% inhibition female (individual replicates) R1 [2, 5]: 24.4%
% inhibition female (individual replicates) R3 [2, 5]: 9.8%
% inhibition female (individual replicates) R4 [2, 5]: 34.2%
HitlevelF [2, 9]: 0

O=C(COc1ccccc1)N(Cc1ccc(-c2ccc(CNC3Cc4ccccc4C3)cc2)cc1)C1CCNCC1.O=C(O)C(F)(F)F [TCMDC-141450]
% inhibition male (individual replicates) R1 [1, 3]: 15.3%
% inhibition male (individual replicates) R3 [1, 3]: -5.5%
% inhibition male (individual replicates) R4 [1, 3]: 33.6%
Average inhibition male (%) [1, 4]: 16.7%
% inhibition female (individual replicates) R1 [2, 3]: 8.2%
% inhibition female (individual replicates) R3 [2, 3]: -25.4%
% inhibition female (individual replicates) R4 [2, 3]: -2.6%
Average inhibition female (%) [2, 4]: -0.0825%

CN(C)CCCNCc1ccc(-c2ccc(CNCCOc3ccccc3)cc2)cc1.O=C(O)C(F)(F)F [TCMDC-141457]
% inhibition male (individual replicates) R1 [1, 3]: 5.2%
% inhibition male (individual replicates) R3 [1, 3]: 1.0%
% inhibition male (individual replicates) R4 [1, 3]: 30.2%
Average inhibition male (%) [1, 4]: 9.2%
% inhibition female (individual replicates) R1 [2, 3]: 3.5%
% inhibition female (individual replicates) R3 [2, 3]: -18.9%
% inhibition female (individual replicates) R4 [2, 3]: -9.2%
Average inhibition female (%) [2, 4]: -4.9%

COc1cccc(CCN(Cc2ccccc2-c2ccc(CNC3CC(C)(C)NC(C)(C)C3)cc2)C(=O)NC2CCCCC2)c1.Cl [TCMDC-141577]
Average inhibition male (%) [1, 5]: 1.5%
% inhibition male (individual replicates) R1 [1, 5]: 8.1%
% inhibition male (individual replicates) R3 [1, 5]: -2.0%
% inhibition male (individual replicates) R4 [1, 5]: 2.2%
HitlevelM [1, 6]: 0
Activity [1, 4]: 0
Average inhibition female (%) [2, 5]: 13.0%
% inhibition female (individual replicates) R1 [2, 5]: 16.8%
% inhibition female (individual replicates) R3 [2, 5]: -15.5%
% inhibition female (individual replicates) R4 [2, 5]: 31.4%
HitlevelF [2, 7]: 0

CN(C)CCCNc1nccc(N(C)c2ccc(NC(=O)Nc3cc(C(F)(F)F)ccc3F)cc2)n1.O=C(O)C(F)(F)F [TCMDC-141633]
Average inhibition male (%) [1, 5]: 62.2%
% inhibition male (individual replicates) R1 [1, 5]: 40.8%
% inhibition male (individual replicates) R4 [1, 5]: 63.9%
HitlevelM [1, 6]: 2
Activity [1, 4]: 0
Average inhibition female (%) [2, 5]: 13.3%
% inhibition female (individual replicates) R1 [2, 5]: 14.0%
% inhibition female (individual replicates) R3 [2, 5]: 9.3%
% inhibition female (individual replicates) R4 [2, 5]: 15.1%
HitlevelF [2, 7]: 0

O=C(O)C(F)(F)F.c1ccc(CCNCc2ccc(-c3ccc(CNC4CCN(Cc5ccccc5)CC4)cc3)nc2)cc1 [TCMDC-141649]
Average inhibition male (%) [1, 5]: 11.3%
% inhibition male (individual replicates) R1 [1, 5]: 9.5%
% inhibition male (individual replicates) R3 [1, 5]: -1.4%
% inhibition male (individual replicates) R4 [1, 5]: 30.2%
HitlevelM [1, 6]: 0
Activity [1, 4]: 0
Average inhibition female (%) [2, 5]: 11.9%
% inhibition female (individual replicates) R1 [2, 5]: 20.3%
% inhibition female (individual replicates) R3 [2, 5]: -13.0%
% inhibition female (individual replicates) R4 [2, 5]: 18.4%
HitlevelF [2, 7]: 0

CCCCCCN1CCC(NCc2ccc(OCCN3CCCC3)cc2)CC1.O=C(O)C(F)(F)F [TCMDC-141663]
Average inhibition male (%) [1, 5]: 7.0%
% inhibition male (individual replicates) R1 [1, 5]: 26.8%
% inhibition male (individual replicates) R3 [1, 5]: -12.7%
% inhibition male (individual replicates) R4 [1, 5]: -11.8%
HitlevelM [1, 6]: 0
Activity [1, 4]: 0
Average inhibition female (%) [2, 5]: 15.8%
% inhibition female (individual replicates) R1 [2, 5]: 20.0%
% inhibition female (individual replicates) R3 [2, 5]: 13.5%
% inhibition female (individual replicates) R4 [2, 5]: 15.0%
HitlevelF [2, 7]: 0

CN1CCc2cc(NS(=O)(=O)c3ccc(-c4ccc(Cl)cc4)cc3)c(OCCCN3CCCCC3)cc2CC1.Cl [TCMDC-141754]
Average inhibition male (%) [1, 10]: 76.4%
% inhibition male (individual replicates) R1 [1, 10]: 81.6%
% inhibition male (individual replicates) R3 [1, 10]: 46.2%
% inhibition male (individual replicates) R4 [1, 10]: 86.2%
HitlevelM [1, 11]: 3
Average inhibition female (%) [2, 10]: 21.5%
% inhibition female (individual replicates) R1 [2, 10]: 25.0%
% inhibition female (individual replicates) R3 [2, 10]: 13.0%
% inhibition female (individual replicates) R4 [2, 10]: 19.2%
HitlevelF [2, 12]: 0

Cl.Clc1ccc(C2CCN(CCCOc3ccc4c(c3)CCNCC4)CC2)cc1 [TCMDC-141782]
Average inhibition male (%) [1, 5]: 47.0%
% inhibition male (individual replicates) R1 [1, 5]: 45.1%
% inhibition male (individual replicates) R3 [1, 5]: 27.8%
% inhibition male (individual replicates) R4 [1, 5]: 64.2%
HitlevelM [1, 8]: 2
Average inhibition female (%) [2, 5]: 28.4%
% inhibition female (individual replicates) R1 [2, 5]: 14.5%
% inhibition female (individual replicates) R3 [2, 5]: 2.3%
% inhibition female (individual replicates) R4 [2, 5]: 70.0%
HitlevelF [2, 9]: 1

Cc1cc(F)ccc1-c1nc(NCCCNCCc2ccccc2)nc2c1ccc(=O)n2-c1c(F)cccc1F.O=C(O)C(F)(F)F [TCMDC-141804]
Average inhibition male (%) [1, 5]: 11.7%
% inhibition male (individual replicates) R1 [1, 5]: 17.7%
% inhibition male (individual replicates) R3 [1, 5]: -28.8%
% inhibition male (individual replicates) R4 [1, 5]: 37.6%
HitlevelM [1, 8]: 0
Average inhibition female (%) [2, 5]: 33.0%
% inhibition female (individual replicates) R1 [2, 5]: 27.9%
% inhibition female (individual replicates) R3 [2, 5]: 6.6%
% inhibition female (individual replicates) R4 [2, 5]: 62.0%
HitlevelF [2, 9]: 1

Cc1c(Cn2ncc(N3CCC(N)CC3)c(Cl)c2=O)cccc1NC(=O)Nc1ccc(-c2ccccc2)cc1.O=C(O)C(F)(F)F [TCMDC-141931]
Average inhibition male (%) [1, 5]: 36.5%
% inhibition male (individual replicates) R1 [1, 5]: 42.7%
% inhibition male (individual replicates) R3 [1, 5]: 3.4%
% inhibition male (individual replicates) R4 [1, 5]: 40.2%
HitlevelM [1, 8]: 1
Average inhibition female (%) [2, 5]: 48.9%
% inhibition female (individual replicates) R1 [2, 5]: 32.2%
% inhibition female (individual replicates) R3 [2, 5]: 19.7%
% inhibition female (individual replicates) R4 [2, 5]: 64.5%
HitlevelF [2, 9]: 2

Nc1nc(N)c2cc(CNc3ccc(Cl)c(Cl)c3)ccc2n1 [TCMDC-141974]
% inhibition male (individual replicates) R1 [1, 3]: 19.3%
% inhibition male (individual replicates) R3 [1, 3]: 26.8%
% inhibition male (individual replicates) R4 [1, 3]: 9.5%
Average inhibition male (%) [1, 4]: 20.3%
% inhibition female (individual replicates) R1 [2, 3]: 1.5%
% inhibition female (individual replicates) R3 [2, 3]: -5.9%
% inhibition female (individual replicates) R4 [2, 3]: 0.5%
Average inhibition female (%) [2, 4]: -1.4%
